How the values were obtained:
[1] = biological target: T1, HCV NS5BΔ21/Gal4-DBD fusion protein (Hepatitis C virus genotype 1b, UniProt Q9WMX2); experiment: 3D-SCREEN assay (NS5B reporter gene assay in Huh-7 cells); format: cell-based, HCV genotype 1b
T1 construct: The protein was expressed with a 21 amino acid C-terminal deletion to remove transmembrane domain; expressed in transfected cells; host or cells: Huh-7 (transient transfection)
Procedure: (§1) Human Hepatoma Huh-7 cell line was maintained in DMEM/HAMF-12 supplemented with 10% SVF, 4 mM glutamine, […] Na pyruvate, 1% penistreptomycine. HCV replicon containing Huh-7 cell lines Huh-9.13 and Luc Neo ET (Reblikon) were maintained in DMEM supplemented with 10% SVF, 2 mM glutamine, and 1×NEAA, 100 U/ml penicillin, and 100 μg/ml streptomycine. Replicon cells were maintained in medium supplemented with 1 mg/ml G418 for replicon Huh-9.13 and 0.5 mg/ml for Luc Neo et replicon unless indicated otherwise. Huh-7 and HCV replicon cell lines were maintained at 37° C. and 5% CO2 in a humidified atmosphere. Cells were dissociated at sub confluence with trypsin EDTA 1×.
cDNA encoding HCV NS5B genotype 1b, was cloned in frame with Gal4-DNA Binding Domain. The protein was expressed with a 21 amino acid C-terminal deletion to remove transmembrane domain. Expression of NS5BΔ21/Gal4 DBD fusion protein was under control of SV40 early promoter. 3D-Sensor peptide was cloned in frame with VP16 activation domain. Expression of 3D-Sensor/VP16 AD fusion protein was under control of CMV promoter. Expression of the firefly luciferase reporter gene was inducible by the [Target protein/conformation sensitive peptide/VP16AD] complex.
It is a single-target, cell based assay. Briefly, expression of a reporter gene depends on the interaction of a short peptide, thereafter named 3D-Sensor, and native conformation of the target protein. Whenever the conformation of the target protein is modified, interaction between 3D-sensor and target protein is disrupted and reporter gene is not expressed anymore. Conformation modifiers are identified by loss of expression of reporter gene. NS5B 3D-Screen platform was generated in Huh-7 cell lines by transient transfection of three expression vectors encoding respectively • (i) HCV NS5BΔ21/Gal4-DBD fusion protein • (ii) the 3D-sensor peptide 14/VP16 fusion protein • (iii) the firefly luciferase reporter gene
Huh-7 cells were dissociated the day before transfection and seeded in T175 flasks at a density of 10^7 cells in 30 ml culture medium. Equimolar ratios of vectors were transfected in cell according to optimized jetPEI transfection protocol (PolyPlus Transfection, Illkirch, France) and 10 μg total DNA/10^6 cells. Transfection was performed for 2 hours at 37° C. and 5% CO2 in a humidified atmosphere. After two hours cells were dissociated and seeded in 96 wells plates at a density of 25,000 cells per well and 90 μl culture medium. 10 μl of compounds to be tested were added 2 hours after seeding. Final concentration of DMSO was 1%. Cells were incubated in the presence of compounds for 24 hours after which expression of firefly luciferase reporter gene was quantified. Briefly, culture medium was removed and cells were lysed by addition of 100 μl of lysis buffer containing 125 mM Tris Phosphate ph 7.8, 10 mM EDTA, 5 mM DTT, 50% glycerol and 5% Triton. Plates were vortexed 10 min at 1300 rpm. Cell lysat was transferred in OpaqueWhite Assay 96 well Flat Bottom plates. 100 μl of luciferin solution 1× were added to each well. Luciferin solution contained 40 mM Tris Phosphate ph 7.8, 0.2 mM EDTA, 67 mM DTT, 2.14 mM MgCl2, 5.4 mM MgSO4, 4.7×10^−4 M luciferin, 5.3×10^−4 M ATP and 2.7×10^−4 M Acetyl co enzyme A. Luminescence was immediately measured with Berthold Microlumat Plus LB 96V luminometer with an integration of 0.5 sec. Inhibition was calculated using the formula: % inhibition=(1−(read/average max))*100. Average max=signal in absence of compound

[2] = tested on: HCV replicon Luc Neo ET in Huh-7 cells; experiment: Replicon assay (Luc Neo ET replicon); format: cell-based; details: Hepatitis C virus, 72 hours with compound, firefly luciferase reporter, read-out: EC50—Replicon LucneoET
Procedure: as §1
Replicon Luc Neo ET is a bicistronic expression constructs (Lohmann et al, 1999, Science 285, 110-113). In brief, the structural genes of the HCV genome were replaced by heterologous sequences; the gene encoding the neomycin phosphotransferase (NPT) and the internal ribosome entry site (IRES) of the encephalomyocarditis virus (EMCV). The bicistronic construct is therefore composed of the following elements: HCV-IRES nucleotides 1-389, the NPT gene, the EMCV-IRES directing translation of downstream HCV sequences from NS2 or NS3 up to the authentic 3′ end of the genome. HCV Polyprotein harbours the cell culture adaptive mutations E1202G, T1280I, K1846T. G418-resistance is only possible with cells containing high amounts of replicon.
Cells were dissociated the day before addition of compounds and seeded in 96 well-plates at a final concentration of 77 777.77 cells·ml^−1·well^−2 in 90 μl final volume of culture medium per well and were maintained at 37° C. and 5% CO2 in a humidified atmosphere for 24 hours. 10 μl of compounds to be tested were added 24 hours after seeding. Final concentration of DMSO was 1%. Cells were incubated in the presence of compounds for 72 hours after which expression of firefly luciferase reporter gene was quantified. Briefly, culture medium was removed and cells were lysed by addition of 100 μl of lysis buffer containing 125 mM Tris Phosphate ph 7.8, 10 mM EDTA, 5 mM DTT, 50% glycerol and 5% Triton. Plates were vortexed 10 min at 1300 rpm. Cell lysat was transferred in OpaqueWhite Assay 96 well Flat Bottom plates. 100 μl of luciferin solution 1× were added to each well. Luciferin solution contained 40 mM Tris Phosphate ph 7.8, 0.2 mM EDTA, 67 mM DTT, 2.14 mM MgCl2, 5.4 mM MgSO4, 4.7×10^−4 M luciferin, 5.3×10^−4 M ATP and 2.7×10^−4 M Acetyl co enzyme A. Luminescence was immediately measured with Berthold Microlumat Plus LB 96V luminometer with an integration of 0.5 sec Inhibition was calculated using the formula:
% inhibition=1−[(RLUsample−RLUbackground)/(RLUsignal−RLUbackground)]

In the case of `COc1ccc(C(=O)C2=C(O)C(=O)N(c3nnc(C)s3)C2c2ccc(C(C)(C)C)cc2)cc1` (stereo not drawn) [Example 3], the EC50 [1] is reported as 7 µM and the EC50 [2] is reported as 15 µM.

In the case of `Cc1ccc(C(=O)C2=C(O)C(=O)N(c3ncc(S(=O)(=O)c4ccc([N+](=O)[O-])cc4)s3)C2c2ccc(C(C)C)cc2)cc1` (stereo not drawn) [Example 10], the EC50 [1] is reported as 2 µM and the EC50 [2] is reported as 8 µM.

For `COc1ccc(C(=O)C2=C(O)C(=O)N(c3nnc(C)s3)C2c2ccc(OC(F)(F)F)cc2)cc1` (stereo not drawn) [Example 20, 3-hydroxy-4-(4-methoxy-benzoyl)-1-(5-methyl-[1,3,4]thiadiazol-2-yl)-5-(4-trifluoromethoxy-phenyl)-1,5-dihydro-pyrrol-2-one], the EC50 [1] was 4 µM and the melting point was 245 to 247 °C.

In the case of `COc1ccc(C(=O)C2=C(O)C(=O)N(c3nnc(C(F)(F)F)s3)C2c2ccc(C(C)(C)C)cc2)cc1` (stereo not drawn) [Example 26, 5-(4-tert-butyl-phenyl)-3-hydroxy-4-(4-methoxy-benzoyl)-1-(5-trifluoromethyl-[1,3,4]thiadiazol-2-yl)-1,5-dihydro-pyrrol-2-one], the EC50 [1] is reported as 14 µM and the melting point is reported as 271 °C.

In the case of `COc1ccc(C(=O)C2=C(O)C(=O)N(c3nnc(C)s3)C2c2ccc(Cl)c(Cl)c2)cc1` (stereo not drawn) [Example 31], the EC50 [2] is reported as 33 µM.

`COc1ccc(C(=O)C2=C(O)C(=O)N(c3nnc(C(C)C)s3)C2c2ccc(C(C)(C)C)cc2)cc1` (stereo not drawn) [Example 35, 5-(4-tert-butyl-phenyl)-3-hydroxy-1-(5-isopropyl-[1,3,4]thiadiazol-2-yl)-4-(4-methoxy-benzoyl)-1,5-dihydro-pyrrol-2-one] showed an EC50 [1] of 4 µM and a melting point of 257 °C.

`Cc1ccc(C(=O)C2=C(O)C(=O)N(c3ncc(S(=O)(=O)N(C)C)s3)C2c2ccc(C(C)C)cc2)cc1` (stereo not drawn) [Example 39, 2-[3-hydroxy-5-(4-isopropyl-phenyl)-4-(4-methyl-benzoyl)-2-oxo-2,5-dihydro-pyrrol-1-yl]-thiazole-5-sulfonic acid dimethylamide] showed an EC50 [1] of 16 µM and a melting point of 237 to 241 °C.

For `CC(C)(C)c1ccc(C2C(C(=O)c3ccc(Cl)cc3)=C(O)C(=O)N2c2ncc(S(=O)(=O)c3ccc([N+](=O)[O-])cc3)s2)cc1` (stereo not drawn) [Example 40], the EC50 [1] was 5 µM and the EC50 [2] was 28 µM.

In the case of `Cc1ccc(C(=O)C2=C(O)C(=O)N(c3ncc(S(=O)(=O)N4CCOCC4)s3)C2c2ccc(C(C)C)cc2)cc1` (stereo not drawn) [Example 41, 3-hydroxy-5-(4-isopropyl-phenyl)-4-(4-methyl-benzoyl)-1-[5-(morpholine-4-sulfonyl)-thiazol-2-yl]-1,5-dihydro-pyrrol-2-one], the EC50 [1] is reported as 16.3 µM and the melting point is reported as 247 to 252 °C.

In the case of `Cc1ccc(C(=O)C2=C(O)C(=O)N(c3ncc(S(=O)(=O)c4ccc([N+](=O)[O-])cc4)s3)C2c2cccc(Cl)c2)cc1` (stereo not drawn) [Example 51], the EC50 [1] is reported as 7 µM and the EC50 [2] is reported as 10 µM.

With `Cc1ccc(C(=O)C2=C(O)C(=O)N(c3nnc(C)s3)C2c2ccc(C(C)C)cc2)cc1` (stereo not drawn) [Example 54] the EC50 [1] was 13 µM and the EC50 [2] was 11 µM.

For `CN(C)c1ccc(C(=O)C2=C(O)C(=O)N(c3ncc(S(=O)(=O)c4ccc([N+](=O)[O-])cc4)s3)C2c2ccc(C(C)(C)C)cc2)cc1` (stereo not drawn) [Example 55, 5-(4-tert-butyl-phenyl)-4-(4-dimethylamino-benzoyl)-3-hydroxy-1-[5-(4-nitro-benzenesulfonyl)-thiazol-2-yl]-1,5-dihydro-pyrrol-2-one], the EC50 [1] was 4 µM and the EC50 [2] was 7 µM.

For `CCc1ccc(C2C(C(=O)c3ccco3)=C(O)C(=O)N2c2ncc(S(=O)(=O)c3ccc([N+](=O)[O-])cc3)s2)cc1` (stereo not drawn) [Example 104, 5-(4-ethyl-phenyl)-4-(furan-2-carbonyl)-3-hydroxy-1-[5-(4-nitro-benzenesulfonyl)-thiazol-2-yl]-1,5-dihydro-pyrrol-2-one], the EC50 [1] was < 10 µM and the EC50 [2] was < 10 µM.

For `O=C(O)c1ccc(C2C(C(=O)c3ccco3)=C(O)C(=O)N2c2ncc(S(=O)(=O)c3ccc([N+](=O)[O-])cc3)s2)cc1` (stereo not drawn) [Example 112, 4-{3-(furan-2-carbonyl)-4-hydroxy-1-[5-(4-nitro-benzenesulfonyl)-thiazol-2-yl]-5-oxo-2,5-dihydro-1H-pyrrol-2-yl}-benzoic acid], the EC50 [1] was < 10 µM and the EC50 [2] was < 10 µM.

In the case of `CC(C)c1ccc(C(=O)C2=C(O)C(=O)N(c3ncc(S(=O)(=O)c4ccc([N+](=O)[O-])cc4)s3)C2c2ccc(OC(F)(F)F)cc2)cc1` (stereo not drawn) [Example 125, 3-hydroxy-4-(4-isopropyl-benzoyl)-1-[5-(4-nitro-benzenesulfonyl)-thiazol-2-yl]-5-(4-trifluoromethoxy-phenyl)-1,5-dihydro-pyrrol-2-one], the EC50 [1] is reported as < 10 µM, the EC50 [2] is reported as < 10 µM and the melting point is reported as 276 to 278 °C.

In the case of `CC(C)c1ccc(C(=O)C2=C(O)C(=O)N(c3ncc(S(=O)(=O)c4ccc([N+](=O)[O-])cc4)s3)C2c2ccc(C(F)(F)F)cc2)cc1` (stereo not drawn) [Example 126, 3-hydroxy-4-(4-isopropyl-benzoyl)-1-[5-(4-nitro-benzenesulfonyl)-thiazol-2-yl]-5-(4-trifluoromethyl-phenyl)-1,5-dihydro-pyrrol-2-one], the EC50 [1] is reported as < 10 µM and the melting point is reported as 300 to 302 °C.

With `Cc1cnc(N2C(=O)C(O)=C(C(=O)c3ccc(C(C)C)cc3)C2c2ccc(C(F)(F)F)cc2)s1` (stereo not drawn) [Example 129, 3-hydroxy-4-(4-isopropyl-benzoyl)-1-(5-methyl-thiazol-2-yl)-5-(4-trifluoromethyl-phenyl)-1,5-dihydro-pyrrol-2-one] the EC50 [1] was < 10 µM and the EC50 [2] was < 10 µM.

`CC(C)c1ccc(C(=O)C2=C(O)C(=O)N(c3ncc(Sc4ccc([N+](=O)[O-])cc4)s3)C2c2ccc(OC(F)(F)F)cc2)cc1` (stereo not drawn) [Example 131, 3-hydroxy-4-(4-isopropyl-benzoyl)-1-[5-(4-nitro-phenylsulfanyl)-thiazol-2-yl]-5-(4-trifluoromethoxy-phenyl)-1,5-dihydro-pyrrol-2-one] showed an EC50 [1] of 13 µM and a melting point of 238 °C.
